US8748608B2, “4-phenylpiperazine derivatives with functionalized linkers as dopamine D3 receptor selective ligands and methods of use” (The United States of America as Represented by the …, priority 2007, dated 2014)
Where two headings read alike, the source gives them in different places.

Experiments:
[1] = target: human dopamine D2-long (D2) receptor (Homo sapiens (Human), UniProt P14416); experiment: Human D2-like receptor competition binding in HEK cells, D2; conditions: hD2L
Text: (§1) Human dopamine D2-long (D2) and D3 (D3) receptors were expressed in HEK cells. In brief, stably transfected HEK cells expressing the human D2-long and the D3 dopamine receptor were developed using the pIRES bicistronic expression vector (CLONTECH; Palo Alto, Calif.). […] For comparison, human dopamine D4 (D4) receptors were obtained from HEK 293 cells stably transfected with a PCR product of a human cDNA coding for the D4.4 form of the human D4 dopamine receptor.
(§2) The procedures to determine the binding affinities at the human dopamine D2-like receptors, the binding affinities at the serotonin 5HT1A, 5HT2A and 5HT2c receptors and functional mitogenesis assay are known in the art. […] Both of these references are incorporated by reference.

[2] = target: T1, human dopamine D3 receptors in CHO cells (Homo sapiens (Human), UniProt P35462); experiment: D3 inhibition of quinpirole stimulation of mitogenesis (antagonist assay); type: cell-based; conditions: inhibition of 30 nM quinpirole stimulated mitogenesis, CHOp cells; read-out: IC50 ± S.E.M., D3
Description: (§3) The cells were incubated at 37° C. in α-MEM with 10% FBS, 0.05% penicillin-streptomycin, and 200 μg/mL of G418. After 48 hours, the cells were rinsed twice with serum-free α-MEM and incubated for 24 hours at 37° C. In the functional assay for agonism, the medium was removed and replaced with 90 μl of serum-free α-MEM and 10 μl of test compound in sterile water; in the antagonist assay, the test compound was diluted in sterile water plus 30 nM quinpirole. After another 24-hour incubation at 37° C., 0.25 μCi of [^3H]thymidine was added to each well and the plates were further incubated for 2 hours at 37° C. The cells were then trypsinized, and the plates were filtered and counted as usual in the art. Quinpirole was run on every plate as an internal standard.
as §2

serotonin 5HT2A receptor = serotonin 5HT2A receptor (Homo sapiens (Human), UniProt P28223); experiment: Serotonin receptor binding, 5HT2A; conditions: ratio of affinities
Text: as §2

[3] = target: T2, D2 receptor (human) in CHOp-cells (Homo sapiens (Human), UniProt P14416); experiment: D2 inhibition of quinpirole stimulation of mitogenesis (antagonist assay); type: cell-based; conditions: inhibition of 30 nM quinpirole stimulated mitogenesis, read-out: IC50 ± S.E.M., D2
Description: as §3, §2

[4] = target: human dopamine D3 receptor (Homo sapiens (Human), UniProt P35462); experiment: Human D2-like receptor competition binding in HEK cells, D3; conditions: for D2/D3: ratio of Ki at D2 over Ki at D3
Text: as §1, §2

serotonin 5HT1A receptor = serotonin 5HT1A receptor (Homo sapiens (Human), UniProt P08908); experiment: Serotonin receptor binding, 5HT1A; conditions: ratio of affinities
Text: (§4) The procedures to determine the binding affinities at the human dopamine D2-like receptors, the binding affinities at the serotonin 5HT1A, 5HT2A and 5HT2c receptors and functional mitogenesis assay are known in the art. See J. Med. Chem. 2005, 48, 839-848. See also, NIDA Research Monograph #178, Proceedings of the College of Drug Dependence, p. 440-466, 1998. Both of these references are incorporated by reference.

serotonin 5HT2c receptor = serotonin 5HT2c receptor (Homo sapiens (Human), UniProt P28335); experiment: Serotonin receptor binding, 5HT2c; conditions: ratio of affinities, 5HT2c over D3
Text: as §2

[5] = target: T2, D2 receptor (human) in CHOp-cells; experiment: D2 stimulation of mitogenesis (agonist assay); type: cell-based; conditions: for EC50: read-out: partial agonist activity: EC50, D2
Description: as §3, §4

[6] = target: T3, human D4.4 dopamine receptor (Homo sapiens (Human), UniProt P21917); experiment: Human D2-like receptor competition binding in HEK cells, D4; conditions: for Ki: HEK 293 cells, hD4.4; for D4/D3 Ki ratio: head printed D4/D2, values correspond to D4 Ki over D3 Ki
Text: as §1, §2

[7] = target: T1, human dopamine D3 receptors in CHO cells; experiment: D3 stimulation of mitogenesis (agonist assay); type: cell-based; conditions: CHOp cells; for EC50: read-out: partial agonist activity: EC50, D3 (converted)
Description: as §3, §4

σ1 binding sites = conditions: cited from earlier work
[8] = target: T3, human D4.4 dopamine receptor; conditions: HEK 293 cells; relative to D2 and D3; cited from earlier work
D1a dopamine receptors = D1a dopamine receptors (Homo sapiens (Human), UniProt P21728); conditions: cited from earlier work
σ2 binding sites = conditions: cited from earlier work
[9] = HEK cells, hD3, read-out: D3 Ki
[10] = Table 3, unit inferred, with spread, read-out: D3 binding affinity

Sequence of human dopamine D2-long (D2) receptor (P14416 whole entry): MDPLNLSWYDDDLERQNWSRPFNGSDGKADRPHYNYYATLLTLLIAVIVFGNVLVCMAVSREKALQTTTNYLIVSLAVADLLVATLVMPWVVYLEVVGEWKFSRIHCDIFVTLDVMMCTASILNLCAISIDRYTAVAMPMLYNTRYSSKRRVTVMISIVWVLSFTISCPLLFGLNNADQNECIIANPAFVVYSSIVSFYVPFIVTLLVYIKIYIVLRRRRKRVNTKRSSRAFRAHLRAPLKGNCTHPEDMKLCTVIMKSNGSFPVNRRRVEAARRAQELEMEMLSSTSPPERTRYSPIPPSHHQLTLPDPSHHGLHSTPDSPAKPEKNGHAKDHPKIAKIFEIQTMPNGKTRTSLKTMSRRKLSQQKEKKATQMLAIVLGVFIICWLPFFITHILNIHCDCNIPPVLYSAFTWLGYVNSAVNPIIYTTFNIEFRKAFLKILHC
T2 sequence (P14416 whole entry): as above
T1 sequence (P35462 whole entry): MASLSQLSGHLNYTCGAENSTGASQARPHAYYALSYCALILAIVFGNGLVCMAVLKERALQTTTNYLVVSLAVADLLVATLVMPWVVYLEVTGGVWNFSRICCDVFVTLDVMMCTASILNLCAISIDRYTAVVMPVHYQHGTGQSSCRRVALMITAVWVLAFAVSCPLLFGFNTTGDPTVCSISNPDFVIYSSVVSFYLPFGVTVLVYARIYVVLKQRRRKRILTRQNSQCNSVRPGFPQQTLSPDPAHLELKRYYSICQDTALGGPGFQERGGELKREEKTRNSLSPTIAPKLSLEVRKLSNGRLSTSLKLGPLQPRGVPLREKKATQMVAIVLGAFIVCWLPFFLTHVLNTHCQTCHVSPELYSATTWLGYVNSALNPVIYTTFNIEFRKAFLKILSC
Sequence of human dopamine D3 receptor (P35462 whole entry): as above
Sequence of serotonin 5HT1A receptor (P08908 whole entry): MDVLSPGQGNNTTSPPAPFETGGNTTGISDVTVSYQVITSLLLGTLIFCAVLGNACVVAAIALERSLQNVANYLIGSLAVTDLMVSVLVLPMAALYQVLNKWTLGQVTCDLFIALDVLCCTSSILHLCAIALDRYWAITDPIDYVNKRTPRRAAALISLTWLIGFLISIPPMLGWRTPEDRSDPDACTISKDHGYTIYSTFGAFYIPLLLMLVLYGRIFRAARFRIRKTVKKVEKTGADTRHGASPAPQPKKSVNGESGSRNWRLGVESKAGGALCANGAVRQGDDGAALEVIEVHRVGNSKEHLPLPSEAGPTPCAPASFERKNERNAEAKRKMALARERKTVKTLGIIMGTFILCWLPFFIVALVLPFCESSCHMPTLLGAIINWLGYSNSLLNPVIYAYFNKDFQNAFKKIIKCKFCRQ
Sequence of serotonin 5HT2c receptor (P28335 33-458): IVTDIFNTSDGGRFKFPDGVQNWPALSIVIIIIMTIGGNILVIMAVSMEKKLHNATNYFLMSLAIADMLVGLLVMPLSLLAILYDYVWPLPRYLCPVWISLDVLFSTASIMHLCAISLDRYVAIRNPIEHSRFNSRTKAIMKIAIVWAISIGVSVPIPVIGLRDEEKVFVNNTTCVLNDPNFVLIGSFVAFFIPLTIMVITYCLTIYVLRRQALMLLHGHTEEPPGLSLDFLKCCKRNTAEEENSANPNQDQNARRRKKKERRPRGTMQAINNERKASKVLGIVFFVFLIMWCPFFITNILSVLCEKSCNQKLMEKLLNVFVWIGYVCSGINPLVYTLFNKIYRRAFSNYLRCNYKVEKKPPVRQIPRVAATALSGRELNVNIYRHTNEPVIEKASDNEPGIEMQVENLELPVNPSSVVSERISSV
T3 sequence (P21917 whole entry): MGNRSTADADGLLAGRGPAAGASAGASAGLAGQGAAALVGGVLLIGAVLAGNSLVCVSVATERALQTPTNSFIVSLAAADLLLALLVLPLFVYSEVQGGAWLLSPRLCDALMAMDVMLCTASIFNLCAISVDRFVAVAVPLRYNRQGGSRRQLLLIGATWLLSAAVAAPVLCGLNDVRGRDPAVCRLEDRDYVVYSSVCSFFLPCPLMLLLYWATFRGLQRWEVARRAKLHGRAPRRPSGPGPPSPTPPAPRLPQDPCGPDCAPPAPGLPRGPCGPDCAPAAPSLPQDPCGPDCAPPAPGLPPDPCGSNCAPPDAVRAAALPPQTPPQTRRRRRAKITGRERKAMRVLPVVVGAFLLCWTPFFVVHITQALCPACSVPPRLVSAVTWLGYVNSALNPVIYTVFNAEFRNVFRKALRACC
Sequence of serotonin 5HT2A receptor (P28223 whole entry): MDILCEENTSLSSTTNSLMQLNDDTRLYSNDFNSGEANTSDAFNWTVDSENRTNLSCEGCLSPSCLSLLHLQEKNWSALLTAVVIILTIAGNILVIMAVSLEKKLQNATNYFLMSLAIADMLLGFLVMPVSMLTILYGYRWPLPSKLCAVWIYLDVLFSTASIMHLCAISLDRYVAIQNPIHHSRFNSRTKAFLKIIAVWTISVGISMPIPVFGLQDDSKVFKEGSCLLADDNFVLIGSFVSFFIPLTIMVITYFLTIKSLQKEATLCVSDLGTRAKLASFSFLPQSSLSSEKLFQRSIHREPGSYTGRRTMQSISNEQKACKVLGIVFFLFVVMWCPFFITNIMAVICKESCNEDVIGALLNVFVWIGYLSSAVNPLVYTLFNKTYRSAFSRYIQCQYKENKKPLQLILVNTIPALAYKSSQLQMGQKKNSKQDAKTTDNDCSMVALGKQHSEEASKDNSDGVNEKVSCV
Sequence of D1a dopamine receptors (P21728 whole entry): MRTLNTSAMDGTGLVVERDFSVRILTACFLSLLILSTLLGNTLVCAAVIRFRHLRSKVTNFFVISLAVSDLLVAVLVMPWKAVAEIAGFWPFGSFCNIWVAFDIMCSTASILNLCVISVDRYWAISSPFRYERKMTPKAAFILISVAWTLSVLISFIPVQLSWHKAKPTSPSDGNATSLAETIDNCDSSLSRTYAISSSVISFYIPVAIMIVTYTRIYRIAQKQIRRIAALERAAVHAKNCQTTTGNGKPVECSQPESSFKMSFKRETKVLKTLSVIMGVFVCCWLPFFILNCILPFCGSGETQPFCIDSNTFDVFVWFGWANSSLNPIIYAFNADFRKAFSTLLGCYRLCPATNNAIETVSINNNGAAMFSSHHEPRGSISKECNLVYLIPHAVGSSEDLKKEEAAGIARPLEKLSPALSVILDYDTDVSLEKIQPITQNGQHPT

SMILES: Cc1cccc(-c2ccc(C(=O)NC/C=C/CN3CCN(c4cccc(Cl)c4Cl)CC3)cc2)n1 [Compound 10, N-(4-(4-(2,3-Dichloro-phenyl)-piperazin-1-yl)-trans-but-2-enyl)-4-(6-methyl-pyridin-2-yl)-benzamide]
- Ki [1]: 105 nM
- IC50 [2]: 6.7 ± 2.6 nM
- 5HT2A/D3 (serotonin 5HT2A receptor): 66
- IC50 [3]: 1300 ± 320 nM
- Ki [4, 9]: 1.4 nM
- Ki [4, 10]: 1.4 ± 0.3 nM
- D2/D3 [4]: 75
- 5HT1A/D3 (serotonin 5HT1A receptor): 221
- 5HT2c/D (serotonin 5HT2c receptor): 69

SMILES: Cc1cccnc1-c1ccc(C(=O)NC/C=C/CN2CCN(c3cccc(Cl)c3Cl)CC2)cc1 [Compound 11, N-(4-(4-(2,3-Dichlorophenyl)piperazin-1-yl)-trans-but-2-enyl)-4-(3-methyl-pyridin-2-yl)-benzamide]
- Ki [1]: 92 nM
- IC50 [2]: 25.6 ± 8.5 nM
- 5HT2A/D3 (serotonin 5HT2A receptor): 29
- IC50 [3]: 368 ± 113 nM
- Ki [4, 9]: 1.6 nM
- Ki [4, 10]: 1.6 ± 0.4 nM
- D2/D3 [4]: 58
- 5HT1A/D3 (serotonin 5HT1A receptor): 58
- 5HT2c/D (serotonin 5HT2c receptor): 19

SMILES: O=C(NC/C=C/CN1CCN(c2cccc(Cl)c2Cl)CC1)c1ccc(-c2cccc[n+]2[O-])cc1 [Compound 12, N-(4-(4-(2,3-Dichloro-phenyl)-piperazin-1-yl)-trans-but-2-enyl)-4-(pyridin-N-oxide-2-yl)-benzamide]
- Ki [1]: 25.8 nM
- IC50 [3]: 22.9 ± 2 nM
- Ki [4, 9]: 1.1 nM
- Ki [4, 10]: 1.1 ± 0.3 nM
- partial agonist activity: % stimulation, D2 [5]: 31%
- EC50 [5]: 231 nM

SMILES: O=C(NCCC(O)CN1CCN(c2cccc(Cl)c2Cl)CC1)c1ccc(-c2ccccn2)cc1 (centres unmarked) [Compound 16, N-(4-(4-(2,3-Dichlorophenyl)piperazin-1-yl)-3-hydroxybutyl)-4-pyridin-2-yl-benzamide]
- Ki [1]: 267 nM
- 5HT2A/D3 (serotonin 5HT2A receptor): 14
- Ki [6]: 4620 nM
- D4/D3 Ki ratio [6]: 1540
- Ki [4, 9]: 3 nM
- Ki [4, 10]: 3 ± 0.2 nM
- D2/D3 [4]: 89
- partial agonist activity: % stimulation, D2 [5]: 26%
- EC50 [5]: 15.8 ± 2.7 nM
- partial agonist activity: % stimulation, D3 [7]: 48%
- EC50 [7]: 1 ± 0.1 nM
- 5HT1A/D3 (serotonin 5HT1A receptor): 11
- 5HT2c/D (serotonin 5HT2c receptor): 38

SMILES: COc1ccccc1N1CCN(CC(O)CCNC(=O)c2ccc(-c3ccccn3)cc2)CC1 (centres unmarked) [Compound 18, N-(3-Hydroxy-4-(4-(2-methoxy-phenyl)-piperazin-1-yl)-butyl)-4-pyridin-2-yl-benzamide]
- Ki [1]: 284 nM
- IC50 [2]: 12.8 ± 1.3 nM
- 5HT2A/D3 (serotonin 5HT2A receptor): 248
- Ki [6]: 1490 nM
- D4/D3 Ki ratio [6]: 532
- Ki [4, 9]: 2.8 nM
- Ki [4, 10]: 2.8 ± 0.8 nM
- D2/D3 [4]: 101
- 5HT1A/D3 (serotonin 5HT1A receptor): 13
- 5HT2c/D (serotonin 5HT2c receptor): 1407

SMILES: O=C(NCC(O)CCN1CCN(c2cccc(Cl)c2Cl)CC1)c1ccc(-c2ccccn2)cc1 (centres unmarked) [Compound 21, N-(4-(4-(2,3-Dichlorophenyl)piperazin-1-yl)-2-hydroxybutyl)-4-(pyridin-2-yl)-benzamide]
- Ki [1]: 28.4 nM
- IC50 [2]: 5.4 ± 1.8 nM
- 5HT2A/D3 (serotonin 5HT2A receptor): 31
- IC50 [3]: 88.3 ± 15.7 nM
- Ki [4, 9]: 0.5 nM
- Ki [4, 10]: 0.5 ± 0.1 nM
- D2/D3 [4]: 57
- partial agonist activity: % stimulation, D3 [7]: 20%
- EC50 [7]: 3.4 nM
- 5HT1A/D3 (serotonin 5HT1A receptor): 30
- 5HT2c/D (serotonin 5HT2c receptor): 50

SMILES: COc1cc([125I])cc(C(=O)NC2CC3CCCC(C2)N3Cc2ccccc2)c1OC (centres unmarked) [^125I-IABN]
- affinity to σ1 binding sites (σ1 binding sites): low affinity
- fold lower affinity to human D4.4 dopamine receptors [8]: 7- to 10 fold
- affinity to D1a dopamine receptors (D1a dopamine receptors): low affinity
- affinity to σ2 binding sites (σ2 binding sites): low affinity
